{
  "source": "paper PMC11444265",
  "about": "(European journal of medicinal chemistry, 2021)",
  "key": {"[1]": {"tested_on": "P. aeruginosa AR-BANK#0229", "assay": "Neutropenic mouse thigh infection model", "assay_type": "in vivo", "conditions": "50 and 100 mg/kg SC q6h, neutropenic mice"}, "[2]": {"conditions": "mice; cited from earlier work"}, "[3]": {"tested_on": "Acinetobacter spp. isolates resistant to 2", "assay": "MIC of 2 in combination with efflux pump inhibitors", "assay_type": "cell-based", "conditions": "for direct effect of efflux pump inhibitor on growth: 2 μg/mL for CCCP and 32 μg/mL for PAβN"}, "P. aeruginosa": {"tested_on": "P. aeruginosa", "assay_type": "cell-based, Pseudomonas aeruginosa", "conditions": "for susceptibility of strain: strain AR-BANK#0229"}, "[4]": {"assay": "Pharmacokinetics in CD-1 mice, 50 mg/kg sc or iv", "assay_type": "in vivo", "conditions": "for Sample Conc (individual mouse plasma): sc 50 mg/kg"}, "8 CYP enzymes": {"tested_on": "8 CYP enzymes", "assay": "CYP inhibition panel", "assay_type": "in vitro ADME", "conditions": "7 of the 8 CYP enzymes tested, 30 μM"}, "K. pneumoniae": {"tested_on": "K. pneumoniae", "assay_type": "cell-based", "conditions": "Klebsiella pneumoniae"}, "[5]": {"tested_on": "MDR strains of K. pneumoniae, Acinetobacter spp., and P. aeruginosa", "assay": "MIC50 summary against MDR strains", "assay_type": "cell-based"}, "[6]": {"tested_on": "carbapenem-resistant A. baumannii (CRAB)", "assay": "MIC in low iron media, 98-member carbapenem-resistant A. baumannii", "assay_type": "cell-based"}, "[7]": {"assay": "Plasma protein binding, mouse", "assay_type": "in vitro ADME"}, "Acinetobacter spp.": {"tested_on": "Acinetobacter spp.", "assay": "MIC in low iron media, 198-member panel of Acinetobacter spp. clinical isolates", "assay_type": "cell-based"}, "[8]": {"assay": "Plasma protein binding, human", "assay_type": "in vitro ADME"}, "[9]": {"tested_on": "human primary hepatocytes", "assay": "Cytotoxicity in human primary hepatocytes", "assay_type": "cell-based", "conditions": "maximal dose of 100 μM"}, "Caco-2": {"tested_on": "Caco-2", "assay": "Caco-2 permeability", "assay_type": "in vitro ADME"}, "[10]": {"tested_on": "6 ion channels, including hERG", "assay": "Ion channel panel", "conditions": "30 μM maximal dose"}},
  "note": "Values joined by “and” are separate entries in the source; they are usually repeats but may differ in a detail not shown here. Equal entries are not always repeated. “Also recorded” adds a separate entry of the source. Peptide text beside a SMILES is read from it. * marks the point of attachment. βNA = c1ccc2cc(N*)ccc2c1",
  "data": [
    {"compound": "CC(C)(O/N=C(\\C(=O)N[C@H]1CN2CC(C(=O)NCCN3C(=O)c4cc(O)c(O)cc4C3=O)=C(C(=O)O)N2C1=O)c1csc(N)n1)C(=O)O", "note": "[Compound 1]", "values": [
      {"measurement": "efficacy (thigh bacterial burden, CFU)", "setting": "[1]", "value": "not found to have efficacy"},
      {"measurement": "plasma concentration at the 6-hour timepoint", "setting": "[2]", "value": "about 0.35 mg/mL"}
    ]},
    {"compound": "NC(N)=NCCC[C@H](NC(=O)[C@@H](N)Cc1ccccc1)C(=O)Nc1ccc2ccccc2c1", "note": "[PaβN, phenylalanine-arginine β-naphthylamide, reference compound] (H-Phe-Arg-βNA)", "values": [
      {"measurement": "direct effect of efflux pump inhibitor on growth", "setting": "[3]", "value": "No significant inhibition effect on growth"}
    ]},
    {"compound": "CNC(C)C1CCC(N)C(OC2C(N)CC(N)C(OC3OCC(C)(O)C(NC)C3O)C2O)O1", "note": "(stereo not shown) [gentamicin]", "values": [
      {"measurement": "susceptibility of strain", "setting": "P. aeruginosa", "value": "susceptible"}
    ]},
    {"compound": "colistin", "values": [
      {"measurement": "susceptibility of strain", "setting": "P. aeruginosa", "value": "susceptible"}
    ]},
    {"compound": "CC(C)(O/N=C(\\C(=O)N[C@H]1CN2CC(C(=O)NCCN3C(=O)c4cc(O)c(O)cc4C3=O)=C(C(=O)O)N2C1=O)c1nc(N)sc1Cl)C(=O)O", "note": "[Compound 2, (S,Z)-6-(2-(2-amino-5-chlorothiazol-4-yl)-2-(((2-carboxypropan-2-yl)oxy)imino)acetamido)-2-((2-(5,6-dihydroxy-1,3-dioxoisoindolin-2-yl)ethyl)carbamoyl)-5-oxo-6,7-dihydro-1H,5H-pyrazolo[1,2-a]pyrazole-3-carboxylic acid]", "values": [
      {"measurement": "plasma level at the 6h time point", "setting": "[4]; CD-1 mice, by both dosing routes (sc and iv)", "value": "> 1000", "unit": "µg/mL"},
      {"measurement": "Sample Conc (individual mouse plasma)", "setting": "[4]; 0.167 h", "value": "48689 ng/mL and 44921 ng/mL"},
      {"measurement": "Sample Conc (individual mouse plasma)", "setting": "[4]; 0.5 h", "value": "14355 ng/mL and 14094 ng/mL"},
      {"measurement": "Sample Conc (individual mouse plasma)", "setting": "[4]; 1 h", "value": "3515 ng/mL and 3186 ng/mL"},
      {"measurement": "Sample Conc (individual mouse plasma)", "setting": "[4]; 2 h", "value": 2876, "unit": "ng/mL"},
      {"measurement": "Sample Conc (individual mouse plasma)", "setting": "[4]; 4 h", "value": "1534 ng/mL and 739 ng/mL"},
      {"measurement": "Sample Conc (individual mouse plasma)", "setting": "[4]; 6 h", "value": "1102 ng/mL and 1425 ng/mL"},
      {"measurement": "Sample Conc (individual mouse plasma)", "setting": "[4]; 8 h", "value": "1473 ng/mL and 1126 ng/mL"},
      {"measurement": "Sample Conc (individual mouse plasma)", "setting": "[4]; 24 h", "value": "545 ng/mL and 579 ng/mL"},
      {"measurement": "effect of efflux pump inhibitors on MIC of 2", "setting": "[3]; combined with CCCP 2 μg/mL or PAβN 32 μg/mL", "value": "no consistent effect on MIC values"},
      {"measurement": "effect of combination with CCCP", "setting": "[3]; isolate PR-452, CCCP 2 μg/mL", "value": "Potential synergistic effects"},
      {"measurement": "efficacy (thigh bacterial burden, CFU)", "setting": "[1]", "value": "dose-dependent efficacy; also recorded: dose-dependent reduction in CFU values"},
      {"measurement": "CYP inhibition", "setting": "8 CYP enzymes", "value": "does not inhibit"},
      {"measurement": "MIC50", "setting": "K. pneumoniae", "value": 1000, "unit": "µg/mL"},
      {"measurement": "MIC50", "setting": "[5]", "value": "≤ 0.5", "unit": "µg/mL"},
      {"measurement": "susceptibility of panel (isolates susceptible)", "setting": "[6]; 98 CRAB subset, cefiderocol breakpoint <=4 μg/mL applied, 81 out of 98", "value": 83, "unit": "%"},
      {"measurement": "fraction of strains with MICs >=16 μg/mL", "setting": "[6]; carbapenem-resistant subgroup, 15 of 98", "value": 15, "unit": "%"},
      {"measurement": "protein-bound", "setting": "[7]", "value": 94, "unit": "%"},
      {"measurement": "fraction of strains with MICs >=16 μg/mL", "setting": "Acinetobacter spp.; 24 of 198 tested strains", "value": 12, "unit": "%"},
      {"measurement": "MIC90", "setting": "Acinetobacter spp.; Acinetobacter", "value": "> 16", "unit": "µg/mL"},
      {"measurement": "share of panel that could be susceptible", "setting": "Acinetobacter spp.; full 198 member panel, 2 with 20 μg/mL coadministration of sulbactam", "value": 98, "unit": "%"},
      {"measurement": "protein-bound", "setting": "[8]", "value": 88, "unit": "%"},
      {"measurement": "cytotoxicity", "setting": "[9]", "value": "not found"},
      {"measurement": "Caco-2 permeability", "setting": "Caco-2", "value": "poor Caco-2 permeability"},
      {"measurement": "MIC50", "setting": "P. aeruginosa; Pseudomonas aeruginosa", "value": 500, "unit": "µg/mL"},
      {"measurement": "ion channel inhibition", "setting": "[10]", "value": "did not inhibit these channels"}
    ]},
    {"compound": "C[C@@H](O)[C@H]1C(=O)N2C(C(=O)O)=C(S[C@@H]3CN[C@H](C(=O)N(C)C)C3)[C@H](C)[C@H]12", "note": "[Meropenem (5), meropenem, reference compound]", "values": [
      {"measurement": "MIC50", "setting": "[5]", "value": "> 8", "unit": "µg/mL"},
      {"measurement": "MIC90", "setting": "[6]; Acinetobacter baumannii", "value": "> 64", "unit": "µg/mL"},
      {"measurement": "MIC90", "setting": "Acinetobacter spp.; Acinetobacter", "value": "> 64", "unit": "µg/mL"}
    ]},
    {"compound": "N#CC(C#N)=NNc1cccc(Cl)c1", "note": "[CCCP, carbonyl cyanide 3-chlorophenylhydrazone, reference compound]", "values": [
      {"measurement": "direct effect of efflux pump inhibitor on growth", "setting": "[3]", "value": "No significant inhibition effect on growth"}
    ]},
    {"compound": "C[C@H]1[C@H](NC(=O)/C(=N\\OC(C)(C)C(=O)O)c2csc(N)n2)C(=O)N1S(=O)(=O)O", "note": "[Aztreonam (3), aztreonam]", "values": [
      {"measurement": "MIC50", "setting": "Acinetobacter spp.; Acinetobacter", "value": "> 32", "unit": "µg/mL"},
      {"measurement": "MIC90", "setting": "Acinetobacter spp.; Acinetobacter", "value": "> 32", "unit": "µg/mL"}
    ]},
    {"compound": "NCC[C@H](O)C(=O)N[C@@H]1C[C@H](N)[C@@H](O[C@H]2O[C@H](CN)[C@@H](O)[C@H](O)[C@H]2O)[C@H](O)[C@H]1O[C@H]1O[C@H](CO)[C@@H](O)[C@H](N)[C@H]1O", "note": "[amikacin]", "values": [
      {"measurement": "susceptibility of strain", "setting": "P. aeruginosa", "value": "susceptible"}
    ]},
    {"compound": "CC(C)(O/N=C(\\C(=O)N[C@@H]1C(=O)N2C(C(=O)[O-])=C(C[n+]3ccccc3)CS[C@H]12)c1csc(N)n1)C(=O)O", "note": "[Ceftazidime (4), ceftazidime]", "values": [
      {"measurement": "MIC90", "setting": "Acinetobacter spp.; Acinetobacter", "value": "> 64", "unit": "µg/mL"}
    ]},
    {"compound": "CC1(C)[C@H](C(=O)O)N2C(=O)C[C@H]2S1(=O)=O", "note": "[Compound 10, sulbactam]", "values": [
      {"measurement": "isolates with MICs <=16 μg/mL", "setting": "Acinetobacter spp.; 24 isolates with MIC of 2 >=16 μg/mL, 19/24", "value": 79, "unit": "%"}
    ]}
  ]
}
